Read-outs that look alike come from different tables or passages of the source.
Key:
[1] = system: cholesterol biosynthesis in Hep 3B cells; experiment: Cholesterol biosynthesis, incorporation of [2, ^3H]acetate into [^3H]cholesterol, Hep 3B; format: cell-based, human; conditions: for inhibition at 10 µM / inhibition at 1 µM / inhibition at 5 µM / inhibition at 50 µM: Homo sapiens, Hep3B, read-out: percentage of inhibition of cholesterol biosynthesis
Hep 3B cells = experiment: Sub-G1 population and DNA fragmentation (apoptosis), Hep 3B; format: cell-based, human; conditions: compared with Hep G2 cells treated in the same condition (FIG. 12)
[2] = system: cholesterol biosynthesis in Hep G2 cells; experiment: Cholesterol biosynthesis, incorporation of [2, ^3H]acetate into [^3H]cholesterol, Hep G2; format: cell-based, human; conditions: for inhibition at 10 µM / inhibition at 1 µM / inhibition at 5 µM / inhibition at 50 µM: Homo sapiens, read-out: percentage of inhibition of cholesterol biosynthesis
[3] = MTT cell viability assay, mouse hepatocytes (serum-free RPMI-1640); format: cell-based; conditions: BALB/c, isolated mouse hepatocytes

Structure (SMILES): CC[C@H](C)C(=O)O[C@H]1C[C@@H](C)C=C2C=C[C@H](C)[C@H](CC[C@@H]3C[C@@H](O)CC(=O)O3)[C@H]21 [Lovastatin, lovastatin]
- inhibition at 10 µM ([1]; 2 h): 94.1%
- inhibition at 10 µM ([1]; 6 h): 92.4%
- inhibition at 10 µM ([1]; 12 h): 89.5%
- inhibition at 1 µM ([1]; 24 h): 50%
- inhibition at 5 µM ([1]; 24 h): 85.4%
- inhibition at 10 µM ([1]; 24 h): 91.4%
- inhibition at 50 µM ([1]; 24 h): 95.1%
- inhibition at 1 µM ([1]; 48 h): 68.2%
- inhibition at 5 µM ([1]; 48 h): 86.2%
- inhibition at 10 µM ([1]; 48 h): 94%
- inhibition at 50 µM ([1]; 48 h): 95.5%
- suppression of cholesterol synthesis ([1]; after prolonged treatment with lovastatin): > 90%
- [^3H]cholesterol ([1]; lovastatin 1 μM, 24 hr): 29.84 10^2 dpm/10^5 cells/hr
- [^3H]cholesterol ([1]; lovastatin 1 μM, 48 hr): 18.95 10^2 dpm/10^5 cells/hr
- [^3H]cholesterol ([1]; lovastatin 5 μM, 24 hr): 8.69 10^2 dpm/10^5 cells/hr
- [^3H]cholesterol ([1]; lovastatin 5 μM, 48 hr): 8.25 10^2 dpm/10^5 cells/hr
- [^3H]cholesterol ([1]; lovastatin 10 μM, 2 hr): 3.54 10^2 dpm/10^5 cells/hr
- [^3H]cholesterol ([1]; lovastatin 10 μM, 6 hr): 4.52 10^2 dpm/10^5 cells/hr
- [^3H]cholesterol ([1]; lovastatin 10 μM, 12 hr): 6.25 10^2 dpm/10^5 cells/hr
- [^3H]cholesterol ([1]; lovastatin 10 μM, 24 hr): 5.13 10^2 dpm/10^5 cells/hr
- [^3H]cholesterol ([1]; lovastatin 10 μM, 48 hr): 3.59 10^2 dpm/10^5 cells/hr
- [^3H]cholesterol ([1]; lovastatin 50 μM, 24 hr): 2.92 10^2 dpm/10^5 cells/hr
- [^3H]cholesterol ([1]; lovastatin 50 μM, 48 hr): 2.71 10^2 dpm/10^5 cells/hr
- Sub-G1 population and DNA fragmentation (markers of cell apoptosis) (Hep 3B cells): observed in a higher percentage and lower dose of lovastatin treatment than those in Hep G2 cells
- inhibition at 10 µM ([2]; HepG2, 2 h): 91.8%
- inhibition at 10 µM ([2]; HepG2, 6 h): 94%
- inhibition at 10 µM ([2]; HepG2, 12 h): 93.3%
- inhibition at 1 µM ([2]; HepG2, 24 h): 50.7%
- inhibition at 5 µM ([2]; HepG2, 24 h): 73.2%
- inhibition at 10 µM ([2]; HepG2, 24 h): 87.2%
- inhibition at 50 µM ([2]; HepG2, 24 h): 95.8%
- inhibition at 1 µM ([2]; HepG2, 48 h): -15.3%
- inhibition at 5 µM ([2]; HepG2, 48 h): 48.5%
- inhibition at 10 µM ([2]; HepG2, 48 h): 69.4%
- inhibition at 50 µM ([2]; HepG2, 48 h): 85.1%
- [^3H]cholesterol ([2]; lovastatin 1 μM, 24 hr): 30.14 10^2 dpm/10^5 cells/hr
- [^3H]cholesterol ([2]; lovastatin 1 μM, 48 hr): 70.43 10^2 dpm/10^5 cells/hr
- [^3H]cholesterol ([2]; lovastatin 5 μM, 24 hr): 16.39 10^2 dpm/10^5 cells/hr
- [^3H]cholesterol ([2]; lovastatin 5 μM, 48 hr): 31.46 10^2 dpm/10^5 cells/hr
- [^3H]cholesterol ([2]; lovastatin 10 μM, 2 hr): 5.00 10^2 dpm/10^5 cells/hr
- [^3H]cholesterol ([2]; lovastatin 10 μM, 6 hr): 3.67 10^2 dpm/10^5 cells/hr
- [^3H]cholesterol ([2]; lovastatin 10 μM, 12 hr): 4.07 10^2 dpm/10^5 cells/hr
- [^3H]cholesterol ([2]; lovastatin 10 μM, 24 hr): 7.83 10^2 dpm/10^5 cells/hr
- [^3H]cholesterol ([2]; lovastatin 10 μM, 48 hr): 18.71 10^2 dpm/10^5 cells/hr
- [^3H]cholesterol ([2]; lovastatin 50 μM, 24 hr): 2.54 10^2 dpm/10^5 cells/hr
- [^3H]cholesterol ([2]; lovastatin 50 μM, 48 hr): 9.13 10^2 dpm/10^5 cells/hr
- viability at 72 h, 1 μM [3]: 91.9 ± 2.7%
- viability at 72 h, 2 μM [3]: 85 ± 4.5%
- viability at 72 h, 5 μM [3]: 84.7 ± 13.3%
- viability at 72 h, 10 μM [3]: 80.4 ± 9.9%
- viability at 72 h, 20 μM [3]: 74.9 ± 5.1%
- viability at 72 h, 50 μM [3]: 39.1 ± 10.6%
